Reference: US12391692B2, “Spiro ring-containing quinazoline compound” (WIGEN BIOMEDICINE TECHNOLOGY (SHANGHAI) CO., LTD., priority 2020, dated 2025)

Experiments:
[1] = system: pERK level in H358 cells; test: pERK and ERK protein content assay in H358 cells (ELISA); format: cell-based; conditions: Homo sapiens, NCI-H358, pERK/ERK ratio vs DMSO group, compound 1 μM, 24 h, read-out: Inhibition rate (%)
Protocol: H358 cells were seeded in a 24-well plate. After one day of growth, a test compound (at a concentration of 1 μM) was added. After 24 h of action of the compound, the cells were lysed, and the cell lysate was transferred to a 96-well ELISA plate. The levels of pERK and ERK in the lysate were measured using an ELISA kit (abcam 176660). The ratio of pERK to ERK was calculated and compared with that of the DMSO group, and the percentage of inhibition of pERK activity by the compound was calculated.

[2] = system: H358 cells; test: Antiproliferative activity against H358 cells (Cell Titer Glow, ultra-low attachment plate); format: cell-based; conditions: Homo sapiens, NCI-H358, 72 h, three days after addition of compound
Protocol: 2500 H358 cells were seeded in a 96-well ultra-low attachment plate (corning, 7007). After one day of growth, a serially diluted compound (a maximum concentration of 5 μM, 5-fold dilution, a total of five doses) was added. Three days after the addition of the compound, Cell Titer Glow (Promega, G9681) was added to evaluate pellet growth, and the IC50 value was calculated.

Structure (SMILES) | IC50 [2] [µM] | inhibition at 1 µM [1] [%]
C=CC(=O)N1CC2(CCN(c3nc(N4CC(C(=O)N5CCN(C)CC5)C4)nc4c(OCC(F)(F)F)c(-c5c(C)ccc6[nH]ncc56)c(C5CC5)cc34)CC2)C1 [Compound 46] | < 0.3 | > 90
C=CC(=O)N1CC2(CCN(c3nc(N4CC(CC#N)(N(C)C)C4)nc4c(OCC(F)(F)F)c(-c5c(C)ccc6[nH]ncc56)c(C5CC5)cc34)CC2)C1 [Compound 51] | < 0.3 | > 90
C=CC(=O)N1CC2(CCN(c3nc(N4CC(CC#N)(N(C)CCO)C4)nc4c(OCC(F)(F)F)c(-c5c(C)ccc6[nH]ncc56)c(C5CC5)cc34)CC2)C1 [Compound 52] | < 0.3 | > 90
C=CC(=O)N1CC2(CCN(c3nc(N4CC(CC#N)(N(C)CCOC)C4)nc4c(OCC(F)(F)F)c(-c5c(C)ccc6[nH]ncc56)c(C5CC5)cc34)CC2)C1 [Compound 53] | < 0.3 | > 90
C=CC(=O)N1CC2(CCN(c3nc(N4CC(CC#N)(N5CCCC5)C4)nc4c(OCC(F)(F)F)c(-c5c(C)ccc6[nH]ncc56)c(C5CC5)cc34)CC2)C1 [Compound 55] | < 0.3 | > 90
C=CC(=O)N1CC2(CCN(c3nc(N4CCC(CC#N)(N5CCC5)CC4)nc4c(OCC(F)(F)F)c(-c5c(C)ccc6[nH]ncc56)c(C5CC5)cc34)CC2)C1 [Compound 58] | < 0.3 | > 90
C=CC(=O)N1CC2(CCN(c3nc(N4CC(C)(CN(C)C)C4)nc4c(OCC(F)(F)F)c(-c5c(C)ccc6[nH]ncc56)c(C5CC5)cc34)CC2)C1 [Compound 62] | < 0.3 | > 90
C=CC(=O)N1CC2(CCN(c3nc(N4CC(C)(CN5CCC5)C4)nc4c(OCC(F)(F)F)c(-c5c(C)ccc6[nH]ncc56)c(C5CC5)cc34)CC2)C1 [Compound 63] | < 0.3 | > 90
C=CC(=O)N1CC2(CCN(c3nc(N4CC5(CC5)C4)nc4c(OCC(F)(F)F)c(-c5c(C)ccc6[nH]ncc56)c(C5CC5)cc34)CC2)C1 [Compound 65] | 0.3 to 1 | 50 to 90
C=CC(=O)N1CC2(CCN(c3nc(N4CC5(CCC5)C4)nc4c(OCC(F)(F)F)c(-c5c(C)ccc6[nH]ncc56)c(C5CC5)cc34)CC2)C1 [Compound 66] | 0.3 to 1 | 50 to 90
C=CC(=O)N1CC2(CCN(c3nc(N4CC5(CCN5C)C4)nc4c(OCC(F)(F)F)c(-c5c(C)ccc6[nH]ncc56)c(C5CC5)cc34)CC2)C1 [Compound 67] | < 0.3 | > 90
C=CC(=O)N1CC2(CCN(c3nc(N4CC5(CCN5CC(F)(F)F)C4)nc4c(OCC(F)(F)F)c(-c5c(C)ccc6[nH]ncc56)c(C5CC5)cc34)CC2)C1 [Compound 68] | < 0.3 | > 90
C=CC(=O)N1CC2(CCN(c3nc(N4CC5(CCN5C5COC5)C4)nc4c(OCC(F)(F)F)c(-c5c(C)ccc6[nH]ncc56)c(C5CC5)cc34)CC2)C1 [Compound 71] | < 0.3 | > 90
C=CC(=O)N1CC2(CCN(c3nc(N4CC5(CCCN5C)C4)nc4c(OCC(F)(F)F)c(-c5c(C)ccc6[nH]ncc56)c(C5CC5)cc34)CC2)C1 [Compound 73] | < 0.3 | > 90
C=CC(=O)N1CC2(CCN(c3nc(N4CC5(CCCCN5C)C4)nc4c(OCC(F)(F)F)c(-c5c(C)ccc6[nH]ncc56)c(C5CC5)cc34)CC2)C1 [Compound 75] | 0.3 to 1 | 50 to 90
C=CC(=O)N1CC2(CCN(c3nc(N4CC5(CCCCN5CCOC)C4)nc4c(OCC(F)(F)F)c(-c5c(C)ccc6[nH]ncc56)c(C5CC5)cc34)CC2)C1 [Compound 76] | < 0.3 | > 90
C=CC(=O)N1CC2(CCN(c3nc(N4CCC5(CCN5C)C4)nc4c(OCC(F)(F)F)c(-c5c(C)ccc6[nH]ncc56)c(C5CC5)cc34)CC2)C1 (stereo not shown) [Compound 77] | < 0.3 | > 90
C=CC(=O)N1CC2(CCN(c3nc(N4CCC5(CCN5CCOC)C4)nc4c(OCC(F)(F)F)c(-c5c(C)ccc6[nH]ncc56)c(C5CC5)cc34)CC2)C1 (stereo not shown) [Compound 78] | < 0.3 | > 90

The next lines start with results.

IC50 [2] [µM] | Structure (SMILES) | inhibition at 1 µM [1] [%]
< 0.3 | C=CC(=O)N1CC2(CCN(c3nc(N4CC(C(=O)N5CC(N(C)C)C5)C4)nc4c(OCC(F)(F)F)c(-c5c(C)ccc6[nH]ncc56)c(C5CC5)cc34)CC2)C1 [Compound 47] | > 90
0.3 to 1 | C=CC(=O)N1CC2(CCN(c3nc(N4CC(C(=O)N5CC6(CN(C)C6)C5)C4)nc4c(OCC(F)(F)F)c(-c5c(C)ccc6[nH]ncc56)c(C5CC5)cc34)CC2)C1 [Compound 48] | 50 to 90
< 0.3 | C=CC(=O)N1CC2(CCN(c3nc(N4CC(S(=O)(=O)N5CCN(C)CC5)C4)nc4c(OCC(F)(F)F)c(-c5c(C)ccc6[nH]ncc56)c(C5CC5)cc34)CC2)C1 [Compound 49] | > 90
0.3 to 1 | C=CC(=O)N1CC2(CCN(c3nc(N4CC(S(=O)(=O)N5CC(N(C)C)C5)C4)nc4c(OCC(F)(F)F)c(-c5c(C)ccc6[nH]ncc56)c(C5CC5)cc34)CC2)C1 [Compound 50] | 50 to 90
< 0.3 | C=CC(=O)N1CC2(CCN(c3nc(N4CC(CC#N)(N5CCC5)C4)nc4c(OCC(F)(F)F)c(-c5c(C)ccc6[nH]ncc56)c(C5CC5)cc34)CC2)C1 [Compound 54] | > 90
< 0.3 | C=CC(=O)N1CC2(CCN(c3nc(N4CC(CC#N)(N5CCOCC5)C4)nc4c(OCC(F)(F)F)c(-c5c(C)ccc6[nH]ncc56)c(C5CC5)cc34)CC2)C1 [Compound 56] | > 90
0.3 to 1 | C=CC(=O)N1CC2(CCN(c3nc(N4CC(CC#N)(n5ccnc5)C4)nc4c(OCC(F)(F)F)c(-c5c(C)ccc6[nH]ncc56)c(C5CC5)cc34)CC2)C1 [Compound 57] | 50 to 90
< 0.3 | C=CC(=O)N1CC2(CCN(c3nc(N4CC(C)(N(C)C)C4)nc4c(OCC(F)(F)F)c(-c5c(C)ccc6[nH]ncc56)c(C5CC5)cc34)CC2)C1 [Compound 59] | > 90
< 0.3 | C=CC(=O)N1CC2(CCN(c3nc(N4CC(C)(N5CCCC5)C4)nc4c(OCC(F)(F)F)c(-c5c(C)ccc6[nH]ncc56)c(C5CC5)cc34)CC2)C1 [Compound 61] | > 90
< 0.3 | C=CC(=O)N1CC2(CCN(c3nc(N4CC(C)(CN5CCCC5)C4)nc4c(OCC(F)(F)F)c(-c5c(C)ccc6[nH]ncc56)c(C5CC5)cc34)CC2)C1 [Compound 64] | > 90
< 0.3 | C=CC(=O)N1CC2(CCN(c3nc(N4CC5(CCN5CC5CC5)C4)nc4c(OCC(F)(F)F)c(-c5c(C)ccc6[nH]ncc56)c(C5CC5)cc34)CC2)C1 [Compound 69] | > 90
< 0.3 | C=CC(=O)N1CC2(CCN(c3nc(N4CC5(CCN5C5CCC5)C4)nc4c(OCC(F)(F)F)c(-c5c(C)ccc6[nH]ncc56)c(C5CC5)cc34)CC2)C1 [Compound 70] | > 90
< 0.3 | C=CC(=O)N1CC2(CCN(c3nc(N4CC5(CCN5CCOC)C4)nc4c(OCC(F)(F)F)c(-c5c(C)ccc6[nH]ncc56)c(C5CC5)cc34)CC2)C1 [Compound 72] | > 90
< 0.3 | C=CC(=O)N1CC2(CCN(c3nc(N4CC5(CCCN5CCOC)C4)nc4c(OCC(F)(F)F)c(-c5c(C)ccc6[nH]ncc56)c(C5CC5)cc34)CC2)C1 [Compound 74] | > 90
